For the first test, the system named is NL-RLuc virus. In words: Inhibition of HIV replication (NL-RLuc luciferase reporter virus in MT-2 cells). The format is cell-based. Conditions: Human immunodeficiency virus 1, MT2, 120 h, read-out: Activity. An excerpt: Inhibition of HIV replication: A recombinant NL-RLuc proviral clone was constructed in which a section of the nef gene from NL4-3 was replaced with the Renilla Luciferase gene. This virus is fully infectious and can undergo multiple cycles of replication in cell culture. In addition, the luciferous reporter provides a simple and easy method for quantitating the extent of virus growth and consequently, the antiviral activity of test compounds. The plasmid pNLRLuc contains the proviral NL-Rluc DNA cloned into pUC18 at the PvuII site. The NL-RLuc virus was prepared by transfection of 293T cells with the plasmid pNLRLuc. Transfections were performed using the LipofectAMINE PLUS kit from Invitrogen (Carlsbad, Calif.) according to the manufacturer and the virus generated was titered in MT-2 cells. For susceptibility analyses, the titrated virus was used to infect MT-2 cells in the presence of compound, and after 5 days of incubation, cells were processed and quantitated for virus growth by the amount of expressed luciferase. Assay media was RPMI 1640 supplemented with 10% heat inactivated fetal bovine serum (FBS), 100 units/ml penicillin G/100 units/ml streptomycin, 10 mM HEPES buffer pH 7.55 and 2 mM L-glutamine. The results from at least 2 experiments were used to calculate the EC50 values. Luciferase was quantitated using the Dual Luciferase kit from Promega (Madison, Wis.). Susceptibility of viruses to compounds was determined by incubation in the presence of serial dilutions of the compound. The 50% effective concentration (EC50) was calculated by using the exponential form of the median effect equation where (Fa)=1/[1+(ED50/drug conc.)^m](Johnson V A, Byington R T. Infectivity Assay. In Techniques in HIV Research. ed. Aldovini A, Walker B D. 71-76. New York: Stockton Press. 1990). Activity equal to A refers to a compound having an EC50≤100 nM, while B and C denote compounds having an EC50 between 100 nM and 1 uM (B) or >1 uM (C).
In general terms: Reporter assays use an easily measured gene product as a stand-in for the process of interest.
`Cc1nc(C)c([C@H](OC(C)(C)C)C(=O)O)c(N2CCC(C)(C)CC2)c1-c1ccc2c(c1)CCN(c1ncccn1)C2` [Compound 18]: the EC50 is below 0.1 µM.

On to `CSc1nccc(N2CCc3cc(-c4c(C)nc(C)c([C@H](OC(C)(C)C)C(=O)O)c4N4CCC(C)(C)CC4)ccc3C2)n1` [Compound 39], for which the EC50 was below 0.1 µM.

As for `Cc1nc(C)c([C@H](OC(C)(C)C)C(=O)O)c(N2CCC(C)(C)CC2)c1-c1ccc2c(c1)CCN(c1ccccn1)C2` [Compound 46], the EC50 was below 0.1 µM.

As to `Cc1cc(N2CCc3cc(-c4c(C)nc(C)c([C@H](OC(C)(C)C)C(=O)O)c4N4CCC(C)(C)CC4)ccc3C2)ncn1` [Compound 19], the EC50 was below 0.1 µM.

For the compound `CCc1ccnc(N2CCc3cc(-c4c(C)nc(C)c([C@H](OC(C)(C)C)C(=O)O)c4N4CCC(C)(C)CC4)ccc3C2)n1` [Compound 32], the EC50 is below 0.1 µM.

Consider `Cc1cc(N2CCc3cc(-c4c(C)nc(C)c([C@H](OC(C)(C)C)C(=O)O)c4N4CCC(C)(C)CC4)ccc3C2)nc(N)n1` [Compound 61], for which the EC50 was below 0.1 µM.

Turning to `Cc1nc(C)c([C@H](OC(C)(C)C)C(=O)O)c(N2CCC(C)(C)CC2)c1-c1ccc2c(c1)CCN(c1nnnn1-c1ccccc1)C2` [Compound 1], the EC50 is below 0.1 µM.

As for `Cc1nc(O)cc(N2CCc3cc(-c4c(C)nc(C)c([C@H](OC(C)(C)C)C(=O)O)c4N4CCC(C)(C)CC4)ccc3C2)n1` [Compound 65], the EC50 was 0.1 to 1 µM.

On to `Cc1nc(C)c([C@H](OC(C)(C)C)C(=O)O)c(N2CCC(C)(C)CC2)c1-c1ccc2c(c1)CCN(c1nccc(N3CCOCC3)n1)C2` [Compound 10], for which the EC50 was below 0.1 µM.

Turning to `Cc1nccc(N2CCc3cc(-c4c(C)nc(C)c([C@H](OC(C)(C)C)C(=O)O)c4N4CCC(C)(C)CC4)ccc3C2)n1` [Compound 41], the EC50 was below 0.1 µM.

With `Cc1nc(C)c([C@H](OC(C)(C)C)C(=O)O)c(N2CCC(C)(C)CC2)c1-c1ccc2c(c1)CCN(c1ccnc(C(F)(F)F)n1)C2` [Compound 60], the EC50 was below 0.1 µM.

For `Cc1nc(NC(C)(C)C)cc(N2CCc3cc(-c4c(C)nc(C)c([C@H](OC(C)(C)C)C(=O)O)c4N4CCC(C)(C)CC4)ccc3C2)n1` [Compound 64], the EC50 is below 0.1 µM.

Regarding `Cc1nc(C)c([C@H](OC(C)(C)C)C(=O)O)c(N2CCC(C)(C)CC2)c1-c1ccc2c(c1)CCN(c1nc(N3CCOCC3)nc(N3CCOCC3)n1)C2` [Compound 37], the EC50 is below 0.1 µM.

In the case of `Cc1ccnc(N2CCc3cc(-c4c(C)nc(C)c([C@H](OC(C)(C)C)C(=O)O)c4N4CCC(C)(C)CC4)ccc3C2)n1` [Compound 30], the EC50 was below 0.1 µM.

`Cc1nc(C)c([C@H](OC(C)(C)C)C(=O)O)c(N2CCC(C)(C)CC2)c1-c1ccc2c(c1)CCN(c1nccc(C#N)n1)C2` [Compound 26]: the EC50 was below 0.1 µM.

Consider `COCc1cc(N2CCc3cc(-c4c(C)nc(C)c([C@H](OC(C)(C)C)C(=O)O)c4N4CCC(C)(C)CC4)ccc3C2)ncn1` [Compound 51], for which the EC50 was below 0.1 µM.

Consider `Cc1nc(C)c([C@H](OC(C)(C)C)C(=O)O)c(N2CCC(C)(C)CC2)c1-c1ccc2c(c1)CCN(c1ncncc1-c1ccccc1)C2` [Compound 38], for which the EC50 was below 0.1 µM.

For the compound `COc1cnc(N2CCc3cc(-c4c(C)nc(C)c([C@H](OC(C)(C)C)C(=O)O)c4N4CCC(C)(C)CC4)ccc3C2)nc1` [Compound 34], the EC50 is below 0.1 µM.

As for `COc1ccc(N2CCc3cc(-c4c(C)nc(C)c([C@H](OC(C)(C)C)C(=O)O)c4N4CCC(C)(C)CC4)ccc3C2)nn1` [Compound 47], the EC50 is below 0.1 µM.

As to `Cc1cn(-c2ccc(N3CCc4cc(-c5c(C)nc(C)c([C@H](OC(C)(C)C)C(=O)O)c5N5CCC(C)(C)CC5)ccc4C3)nn2)cn1` [Compound 69], the EC50 is below 0.1 µM.

`Cc1nc(C)c([C@H](OC(C)(C)C)C(=O)O)c(N2CCC(C)(C)CC2)c1-c1ccc2c(c1)CCN(c1nccc(-c3ccccc3)n1)C2` [Compound 8]: the EC50 was below 0.1 µM.

Turning to `COc1cnc(SC)nc1N1CCc2cc(-c3c(C)nc(C)c([C@H](OC(C)(C)C)C(=O)O)c3N3CCC(C)(C)CC3)ccc2C1` [Compound 57], the EC50 was below 0.1 µM.

In the case of `Cc1nc(C)c([C@H](OC(C)(C)C)C(=O)O)c(N2CCC(C)(C)CC2)c1-c1ccc2c(c1)CCN(c1ncnc(Cl)c1N)C2` [Compound 54], the EC50 is below 0.1 µM.

Consider `COc1nccc(N2CCc3cc(-c4c(C)nc(C)c([C@H](OC(C)(C)C)C(=O)O)c4N4CCC(C)(C)CC4)ccc3C2)n1` [Compound 40], for which the EC50 was below 0.1 µM.

Consider `CNc1nccc(N2CCc3cc(-c4c(C)nc(C)c([C@H](OC(C)(C)C)C(=O)O)c4N4CCC(C)(C)CC4)ccc3C2)n1` [Compound 36], for which the EC50 was below 0.1 µM.

`Cc1nc(C)c([C@H](OC(C)(C)C)C(=O)O)c(N2CCC(C)(C)CC2)c1-c1ccc2c(c1)CCN(c1ncnc3c1CCC3)C2` [Compound 52]: the EC50 is below 0.1 µM.

In the case of `Cc1nc(C)c([C@H](OC(C)(C)C)C(=O)O)c(N2CCC(C)(C)CC2)c1-c1ccc2c(c1)CCN(c1nc(-c3ccccc3)cs1)C2` [Compound 3], the EC50 was below 0.1 µM.

As to `Cc1cc(N2CCc3cc(-c4c(C)nc(C)c([C@H](OC(C)(C)C)C(=O)O)c4N4CCC(C)(C)CC4)ccc3C2)nc(C(C)C)n1` [Compound 44], the EC50 was below 0.1 µM.

Turning to `Cc1cc(N2CCc3cc(-c4c(C)nc(C)c([C@H](OC(C)(C)C)C(=O)O)c4N4CCC(C)(C)CC4)ccc3C2)nc(C)n1` [Compound 29], the EC50 is below 0.1 µM.

Turning to `COc1ncnc(N2CCc3cc(-c4c(C)nc(C)c([C@H](OC(C)(C)C)C(=O)O)c4N4CCC(C)(C)CC4)ccc3C2)c1C` [Compound 50], the EC50 was below 0.1 µM.

Take `Cc1nc(C)c([C@H](OC(C)(C)C)C(=O)O)c(N2CCC(C)(C)CC2)c1-c1ccc2c(c1)CCN(c1nc3c(s1)C(=O)NCC3)C2` [Compound 4]: the EC50 is below 0.1 µM.

For `COc1ccnc(N2CCc3cc(-c4c(C)nc(C)c([C@H](OC(C)(C)C)C(=O)O)c4N4CCC(C)(C)CC4)ccc3C2)n1` [Compound 12], the EC50 is below 0.1 µM.

`Cc1nc(C)c([C@H](OC(C)(C)C)C(=O)O)c(N2CCC(C)(C)CC2)c1-c1ccc2c(c1)CCN(c1nccc(C(F)(F)F)n1)C2` [Compound 11]: the EC50 was below 0.1 µM.

Take `CSc1nc(N2CCc3cc(-c4c(C)nc(C)c([C@H](OC(C)(C)C)C(=O)O)c4N4CCC(C)(C)CC4)ccc3C2)cc(C(F)(F)F)n1` [Compound 63]: the EC50 was below 0.1 µM.

As to `Cc1nc(C)c([C@H](OC(C)(C)C)C(=O)O)c(N2CCC(C)(C)CC2)c1-c1ccc2c(c1)CCN(c1cc(O)nc(N)n1)C2` [Compound 66], the EC50 lay in the range of 0.1 to 1 µM.

Still in this test, the particulars now being: Human immunodeficiency virus 1, MT2, 120 h, read-out: EC50 μM.
In the case of `Cc1nc(C)c([C@H](OC(C)(C)C)C(=O)O)c(N2CCC(C)(C)CC2)c1-c1ccc2c(c1)CCN(c1ncnc3cc(Cl)ccc13)C2` [Compound 89], the EC50 worked out at 0.004 µM.

`Cc1nc(C)c([C@H](OC(C)(C)C)C(=O)O)c(N2CCC(C)(C)CC2)c1-c1ccc2c(c1)CCN(c1ncnc3ccccc13)C2` [Compound 76]: the EC50 is 0.002 µM.

With `Cc1nc(C)c([C@H](OC(C)(C)C)C(=O)O)c(N2CCC(C)(C)CC2)c1-c1ccc2c(c1)CCN(c1nnnn1-c1ccccc1)C2` [Compound 1], the EC50 is 0.006 µM.

As for `Cc1nc(C)c([C@H](OC(C)(C)C)C(=O)O)c(N2CCC(C)(C)CC2)c1-c1ccc2c(c1)CCN(c1nccc3ncncc13)C2` [Compound 86], the EC50 worked out at 0.001 µM.

With `Cc1nc(C)c([C@H](OC(C)(C)C)C(=O)O)c(N2CCC(C)(C)CC2)c1-c1ccc2c(c1)CCN(c1ncc3cc(F)ccc3n1)C2` [Compound 75], the EC50 was found to be 0.003 µM.

Take `Cc1nc(C)c([C@H](OC(C)(C)C)C(=O)O)c(N2CCC(C)(C)CC2)c1-c1ccc2c(c1)CCN(c1ccnc3cccnc13)C2` [Compound 88]: the EC50 was found to be 0.001 µM.

For the compound `Cc1nc(C)c([C@H](OC(C)(C)C)C(=O)O)c(N2CCC(C)(C)CC2)c1-c1ccc2c(c1)CCN(c1nc(C(F)(F)F)cc3ccccc13)C2` [Compound 79], the EC50 stood at 0.007 µM.

For `COc1nccc(N2CCc3cc(-c4c(C)nc(C)c([C@H](OC(C)(C)C)C(=O)O)c4N4CCC(C)(C)CC4)ccc3C2)n1` [Compound 40], the EC50 amounted to 0.002 µM.

For the compound `Cc1cc(N2CCc3cc(-c4c(C)nc(C)c([C@H](OC(C)(C)C)C(=O)O)c4N4CCC(C)(C)CC4)ccc3C2)nc(C)n1` [Compound 29], the EC50 is 0.004 µM.

Turning to `Cc1nc(C)c([C@H](OC(C)(C)C)C(=O)O)c(N2CCC(C)(C)CC2)c1-c1ccc2c(c1)CCN(c1ncc3ccccc3n1)C2` [Compound 73], the EC50 came to 0.002 µM.

Turning to `COc1ccc2cnc(N3CCc4cc(-c5c(C)nc(C)c([C@H](OC(C)(C)C)C(=O)O)c5N5CCC(C)(C)CC5)ccc4C3)nc2c1` [Compound 74], the EC50 was 0.006 µM.

On to `Cc1nc2ccccc2nc1N1CCc2cc(-c3c(C)nc(C)c([C@H](OC(C)(C)C)C(=O)O)c3N3CCC(C)(C)CC3)ccc2C1` [Compound 87], for which the EC50 was determined as 0.01 µM.

Regarding `Cc1nc(C)c([C@H](OC(C)(C)C)C(=O)O)c(N2CCC(C)(C)CC2)c1-c1ccc2c(c1)CCN(c1ncc3cc(Br)ccc3n1)C2` [Compound 72], the EC50 is 0.004 µM.

With `Cc1nc(C)c([C@H](OC(C)(C)C)C(=O)O)c(N2CCC(C)(C)CC2)c1-c1ccc2c(c1)CCN(c1nccc3ccccc13)C2` [Compound 78], the EC50 stood at 0.003 µM.

On to `Cc1nc(C)c([C@H](OC(C)(C)C)C(=O)O)c(N2CCC(C)(C)CC2)c1-c1ccc2c(c1)CCN(c1ccc3cnccc3n1)C2` [Compound 70], for which the EC50 is 0.0005 µM.

As for `Cc1nc(C)c([C@H](OC(C)(C)C)C(=O)O)c(N2CCC(C)(C)CC2)c1-c1ccc2c(c1)CCN(c1cc(O)nc(N)n1)C2` [Compound 66], the EC50 worked out at 0.32 µM.

These data come from patent US20200325127A1, “PYRIDIN-3-YL ACETIC ACID DERIVATIVES AS INHIBITORS OF HUMAN IMMUNODEFICIENCY VIRUS REPLICATION” (priority 2016, published 2020).
